According to US20040235906A1, “Substituted amine derivatives and their use as monoamine neurotransmitter re-up-take inhibitors” (priority 2001, published 2004):
Structures can show the parent of a compound that is named as a salt. Where two headings read alike, the source gives them in different places.

Key:
[1] = biological target: T1, reuptake of serotonine(5-HT) in synaptosomes (Rattus norvegicus, UniProt P31652); assay: Inhibition of serotonine (5-HT) reuptake in synaptosomes; type: biochemical
T1 construct: in synaptosomes as described in WO 97/16451; from tissue
T1 sequence (P31652 whole entry): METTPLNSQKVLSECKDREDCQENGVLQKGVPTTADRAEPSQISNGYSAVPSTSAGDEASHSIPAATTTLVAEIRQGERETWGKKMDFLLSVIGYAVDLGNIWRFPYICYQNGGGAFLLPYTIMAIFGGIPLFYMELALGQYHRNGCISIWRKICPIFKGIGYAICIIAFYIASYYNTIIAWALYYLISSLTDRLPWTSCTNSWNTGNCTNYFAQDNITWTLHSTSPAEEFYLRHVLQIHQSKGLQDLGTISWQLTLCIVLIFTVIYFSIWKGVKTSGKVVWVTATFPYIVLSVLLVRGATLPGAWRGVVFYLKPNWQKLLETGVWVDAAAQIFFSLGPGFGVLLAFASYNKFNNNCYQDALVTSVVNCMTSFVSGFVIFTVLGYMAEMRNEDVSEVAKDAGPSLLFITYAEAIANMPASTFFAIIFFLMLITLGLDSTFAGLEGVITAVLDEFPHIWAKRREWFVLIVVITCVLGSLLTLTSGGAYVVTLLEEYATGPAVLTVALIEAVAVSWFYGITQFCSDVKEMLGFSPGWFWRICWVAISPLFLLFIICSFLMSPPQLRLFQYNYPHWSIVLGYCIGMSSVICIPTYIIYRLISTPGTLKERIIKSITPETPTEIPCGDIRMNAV
Experimental: (§1) A number of compounds were tested for their ability to inhibit the reuptake of the monoamine neurotransmitters dopamine(DA) noradrenaline(NA) and serotonine(5-HT) in synaptosomes as described in WO 97/16451.
(§2) The test values are given as IC50 (the concentration (μM) of the test substance which inhibits the specific binding of ^3H-DA, ^3H-NA, or ^3H-5-HT by 50%).

[2] = biological target: T2, reuptake of dopamine(DA) in synaptosomes (Rattus norvegicus, UniProt P23977); assay: Inhibition of dopamine (DA) reuptake in synaptosomes; type: biochemical
T2 construct: in synaptosomes as described in WO 97/16451; from tissue
T2 sequence (P23977 whole entry): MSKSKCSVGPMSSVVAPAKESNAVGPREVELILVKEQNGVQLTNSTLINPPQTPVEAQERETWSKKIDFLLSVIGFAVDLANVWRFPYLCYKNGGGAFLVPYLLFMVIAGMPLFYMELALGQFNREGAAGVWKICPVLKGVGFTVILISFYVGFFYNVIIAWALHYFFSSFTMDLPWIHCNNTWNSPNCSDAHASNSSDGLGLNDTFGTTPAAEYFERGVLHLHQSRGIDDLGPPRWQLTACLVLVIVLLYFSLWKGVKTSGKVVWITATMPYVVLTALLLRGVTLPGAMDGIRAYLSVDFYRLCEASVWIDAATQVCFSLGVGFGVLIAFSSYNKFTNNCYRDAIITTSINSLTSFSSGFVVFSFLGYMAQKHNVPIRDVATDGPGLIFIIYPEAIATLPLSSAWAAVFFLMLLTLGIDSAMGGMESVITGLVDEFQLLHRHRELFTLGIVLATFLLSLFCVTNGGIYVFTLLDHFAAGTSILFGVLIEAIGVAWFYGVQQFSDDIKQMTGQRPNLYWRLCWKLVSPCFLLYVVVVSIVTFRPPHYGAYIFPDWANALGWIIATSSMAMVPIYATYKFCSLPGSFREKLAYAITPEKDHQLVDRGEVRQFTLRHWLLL
Experimental: as §1, §2

[3] = synaptosomes, 3H-DA, read-out: DA-uptake IC50

| SMILES | IC50 [1] [nM] | IC50 [2, 3] [nM] | melting point [°C] | IC50 [2] [nM] |
| --- | --- | --- | --- | --- |
| CC(C)C1CC2CCC(N2)C1COc1ccc(Cl)c(Cl)c1 [Compound of Example 10, (2R,3S)-2-(3,4-Dichloro-phenoxymethyl)-3-(2-propyl)-8-H-8-aza-bicyclo[3.2.1]octane fumaric acid salt] | 9 | 260 | – | – |
| CC(C)[C@@H]1CC2CCC([C@@H]1COc1ccc(Cl)c(Cl)c1)N2C (stereo partly drawn) (as salt: fumaric acid salt) [Compound 16, (2R,3S)-2-(3,4-Dichloro-phenoxymethyl)-3-(2-propyl)-8-methyl-8-aza-bicyclo[3.2.1]octane fumaric acid salt] | – | – | 152.3 to 154.5 | – |
| CN1C2CCC1[C@H](COc1ccc(Cl)c(Cl)c1)[C@@H](c1ccc(Cl)c(Cl)c1)C2 (stereo partly drawn) (as salt: fumaric acid salt) [Compound 15a, (2R,3S)-2-(3,4-Dichloro-phenoxymethyl)-3-(3,4-dichloro-phenyl)-8-methyl-8-aza-bicyclo[3.2.1]octane] | – | – | 215.1 to 217.2 | – |
| CC(C)[C@@H]1CC2CCC([C@@H]1COc1ccc(Cl)c(Cl)c1)N2C (stereo partly drawn) [Compound 16, (2R,3S)-2-(3,4-Dichloro-phenoxymethyl)-3-(2-propyl)-8-methyl-8-aza-bicyclo[3.2.1]octane fumaric acid salt] | 0.72 | > 1000 | – | – |
| CN1C2CCC1[C@H](COc1ccc(Cl)c(Cl)c1)[C@@H](c1ccc(Cl)c(Cl)c1)C2 (stereo partly drawn) [Compound 15a, (2R,3S)-2-(3,4-Dichloro-phenoxymethyl)-3-(3,4-dichloro-phenyl)-8-methyl-8-aza-bicyclo[3.2.1]octane] | 20 | – | – | 15 |
| CN1C2CCC1[C@H](COc1ccc(Cl)c(Cl)c1)CC2 (some centres unmarked) (as salt: fumarate) | – | – | 176 to 180 | – |
| CN1C2CCC1[C@H](COc1ccc(Cl)c(Cl)c1)[C@@H](c1ccccc1)C2 (stereo partly drawn) [Compound 13a, (2R,3S)-2-(3,4-Dichlorophenoxymethyl)-8-methyl-3-phenyl-8-aza-bicyclo[3.2.1]octane] | 0.4 | – | – | 540 |
